Measured values taken from PubChem BioAssay AID330 (DTP/NCI, 2004).
“And” between values parts separate entries of the source, which are not always exact repeats. Equal entries are not always repeated. Toxic doses and inconclusive results are not listed. Rule for the calls: active = survival T/C of 150% or more; inactive = T/C below 125% in these data.

System: P388 leukemia ip, CD2F1 mice, survival T/C
Experiment: NCI In Vivo Anticancer Drug Screen. Data for tumor model P388 Leukemia (intraperitoneal) in CD2F1 (CDF1) mice
Settings: endpoint: median survival time, higher = longer survival
Outline: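 Mice carrying the transplanted tumor received test compound or vehicle. Survival was recorded in each group, and the value is the treated-group measurement divided by that of the vehicle-treated control group.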

[1] = dose: 50.0 mg/kg/injection, schedule: Q01DX005 (ip), vehicle: Klucel (hydroxypropylcellulose) (HPC)
[2] = dose: 100.0 mg/kg/injection, schedule: Q01DX005 (ip), vehicle: Klucel (hydroxypropylcellulose) (HPC)
[3] = dose: 200.0 mg/kg/injection, schedule: Q01DX005 (ip), vehicle: Klucel (hydroxypropylcellulose) (HPC)
[4] = dose: 60.0 mg/kg/injection, schedule: Q01DX005 (ip), vehicle: saline with Tween-80
[5] = dose: 50.0 mg/kg/injection, schedule: Q01DX009 (ip), vehicle: saline
[6] = dose: 100.0 mg/kg/injection, schedule: Q01DX009 (ip), vehicle: saline
[7] = dose: 200.0 mg/kg/injection, schedule: Q01DX009 (ip), vehicle: saline
[8] = dose: 100.0 mg/kg/injection, schedule: Q01DX009 (ip), vehicle: saline with Tween-80
[9] = dose: 200.0 mg/kg/injection, schedule: Q01DX009 (ip), vehicle: saline with Tween-80
[10] = dose: 50.0 mg/kg/injection, schedule: Q01DX009 (ip), vehicle: saline with Tween-80
[11] = dose: 60.0 mg/kg/injection, schedule: Q01DX005 (ip), vehicle: Klucel (hydroxypropylcellulose) (HPC)
[12] = dose: 120.0 mg/kg/injection, schedule: Q01DX005 (ip), vehicle: Klucel (hydroxypropylcellulose) (HPC)
[13] = dose: 240.0 mg/kg/injection, schedule: Q01DX005 (ip), vehicle: Klucel (hydroxypropylcellulose) (HPC)
[14] = dose: 50.0 mg/kg/injection, schedule: Q01DX009 (ip), vehicle: Klucel (hydroxypropylcellulose) (HPC)
[15] = dose: 100.0 mg/kg/injection, schedule: Q01DX009 (ip), vehicle: Klucel (hydroxypropylcellulose) (HPC)
[16] = dose: 200.0 mg/kg/injection, schedule: Q01DX009 (ip), vehicle: Klucel (hydroxypropylcellulose) (HPC)
[17] = dose: 50.0 mg/kg/injection, schedule: Q01DX005 (ip), vehicle: saline with Tween-80
[18] = dose: 100.0 mg/kg/injection, schedule: Q01DX005 (ip), vehicle: saline with Tween-80
[19] = dose: 200.0 mg/kg/injection, schedule: Q01DX005 (ip), vehicle: saline with Tween-80

Measured: T/C

CC(C)NC(=O)OCc1c(COC(=O)NC(C)C)c([N+](=O)[O-])n2c1CCC2
inactive: dose: 25.0 mg/kg/injection, schedule: Q01DX005 (ip), vehicle: Klucel (hydroxypropylcellulose) (HPC) 95 % of control | [1] 99 % of control | [2] 99 % of control and 97 % of control | [3] 104 % of control and 94 % of control | dose: 400.0 mg/kg/injection, schedule: Q01DX005 (ip), vehicle: Klucel (hydroxypropylcellulose) (HPC) 100 % of control

Cc1ccc(/[N+]([O-])=C/c2ccccc2)cc1
inactive: [4] 92 % of control | dose: 120.0 mg/kg/injection, schedule: Q01DX005 (ip), vehicle: saline with Tween-80 94 % of control | dose: 240.0 mg/kg/injection, schedule: Q01DX005 (ip), vehicle: saline with Tween-80 89 % of control

CC(=O)C(C)(CC#N)C(CC=O)CCC#N (stereo not drawn)
inactive: [4] 111 % of control

Cc1c(Cl)c(C)c(Cl)c(CCl)c1Cl
inactive: dose: 18.75 mg/kg/injection, schedule: Q04DX003 (ip), vehicle: saline sonified 95 % of control | dose: 37.5 mg/kg/injection, schedule: Q04DX003 (ip), vehicle: saline sonified 109 % of control | dose: 75.0 mg/kg/injection, schedule: Q04DX003 (ip), vehicle: saline sonified 109 % of control

CCCC[Si](O)(CCCC)CCCC
inactive: [5] 100 % of control | [6] 102 % of control | [7] 100 % of control

O=S(=O)(O)c1ccccc1O
inactive: dose: 25.0 mg/kg/injection, schedule: Q01DX001 (ip), vehicle: saline with Tween-80 111 % of control | dose: 50.0 mg/kg/injection, schedule: Q01DX001 (ip), vehicle: saline with Tween-80 98 % of control | dose: 100.0 mg/kg/injection, schedule: Q01DX001 (ip), vehicle: saline with Tween-80 99 % of control

CCCCCCCCCCCCO[P+](=O)OCCCCCCCCCCCC
inactive: dose: 50.0 mg/kg/injection, schedule: Q01DX009 (ip), vehicle: saline sonified 110 % of control | dose: 66.0 mg/kg/injection, schedule: Q01DX009 (ip), vehicle: saline with Tween-80 109 % of control | dose: 100.0 mg/kg/injection, schedule: Q01DX009 (ip), vehicle: saline sonified 110 % of control | [8] 100 % of control and 95 % of control | dose: 100.0 mg/kg/injection, schedule: Q04DX003 (ip), vehicle: saline with Tween-80 95 % of control | dose: 150.0 mg/kg/injection, schedule: Q01DX009 (ip), vehicle: saline with Tween-80 100 % of control | [9] 90 % of control | dose: 200.0 mg/kg/injection, schedule: Q04DX003 (ip), vehicle: saline with Tween-80 91 % of control | dose: 400.0 mg/kg/injection, schedule: Q01DX009 (ip), vehicle: saline with Tween-80 90 % of control | dose: 400.0 mg/kg/injection, schedule: Q04DX003 (ip), vehicle: saline with Tween-80 95 % of control

CCOC(=O)CCCCCNc1nc(Cl)nc(Cl)n1
inactive: [10] 98 % of control | [8] 103 % of control | [9] 87 % of control

O=C(O)[C@@H]1[C@H](C(=O)O)[C@H](C(=O)O)C[C@@H]1C(=O)O
inactive: [6] 108 % of control | [7] 105 % of control

NC1=C(O)C(=O)C(c2cccnc2)O1 (stereo not drawn)
inactive: dose: 30.0 mg/kg/injection, schedule: Q01DX005 (ip), vehicle: Klucel (hydroxypropylcellulose) (HPC) 102 % of control | [11] 96 % of control | [12] 86 % of control and 93 % of control | [13] 86 % of control

Cc1nn(C(=O)c2ccncc2)c(C)c1N=Nc1ccc(S(=O)(=O)N=C(N)N)cc1
inactive: [14] 97 % of control | [15] 95 % of control | [16] 100 % of control

N#C/C(=C/N)C(N)=O
inactive: [10] 104 % of control | [8] 103 % of control | [9] 103 % of control

CC1=C(C(N)=O)C(c2ccccc2Cl)NC(=S)N1 (stereo not drawn)
inactive: [11] 117 % of control | [12] 98 % of control | [13] 99 % of control

O=C1Nc2ccccc2/C1=N/N=C/c1ccccc1Cl
inactive: [14] 99 % of control and 88 % of control | [15] 86 % of control and 97 % of control | [16] 96 % of control

CCCCN(CCCC)C(=N)OC1CCCCC1
inactive: dose: 12.5 mg/kg/injection, schedule: Q01DX005 (ip), vehicle: saline with Tween-80 102 % of control | dose: 25.0 mg/kg/injection, schedule: Q01DX005 (ip), vehicle: saline with Tween-80 100 % of control | [17] 100 % of control

CCc1ccc2c(c1)C(=O)c1c(c(-c3ccccc3)c3ccccc3c1-c1ccccc1)C2=O
inactive: dose: 1.5 mg/kg/injection, schedule: Q01DX005 (ip), vehicle: saline with Tween-80 98 % of control | dose: 3.0 mg/kg/injection, schedule: Q01DX005 (ip), vehicle: saline with Tween-80 95 % of control | dose: 6.0 mg/kg/injection, schedule: Q01DX005 (ip), vehicle: saline with Tween-80 90 % of control | [18] 92 % of control | [19] 92 % of control

COC1=CC(=O)C(=O)C=C1C(C)(C)C
inactive: dose: 2.8 mg/kg/injection, schedule: Q01DX005 (ip), vehicle: saline with Tween-80 107 % of control | dose: 5.6 mg/kg/injection, schedule: Q01DX005 (ip), vehicle: saline with Tween-80 100 % of control | dose: 11.25 mg/kg/injection, schedule: Q01DX005 (ip), vehicle: saline with Tween-80 107 % of control | dose: 22.5 mg/kg/injection, schedule: Q01DX005 (ip), vehicle: saline with Tween-80 98 % of control and 115 % of control | dose: 45.0 mg/kg/injection, schedule: Q01DX005 (ip), vehicle: saline with Tween-80 91 % of control and 96 % of control

O=CNc1cccc(NC=O)c1
inactive: dose: 25.0 mg/kg/injection, schedule: Q01DX009 (ip), vehicle: distilled water + Tween-80 111 % of control | dose: 50.0 mg/kg/injection, schedule: Q01DX009 (ip), vehicle: distilled water + Tween-80 100 % of control | dose: 100.0 mg/kg/injection, schedule: Q01DX009 (ip), vehicle: distilled water + Tween-80 100 % of control | dose: 200.0 mg/kg/injection, schedule: Q01DX009 (ip), vehicle: distilled water + Tween-80 100 % of control

Cc1ccc(C(=O)/C([S-])=C(\Nc2cccc(Cl)c2)[n+]2ccccc2)cc1
inactive: [1] 100 % of control | [2] 98 % of control | [3] 93 % of control

NNC(=O)CNC(=O)Nc1cccc(C(F)(F)F)c1
inactive: [10] 100 % of control | [8] 92 % of control | [9] 100 % of control

O=C(O)C(Cc1ccc(O)cc1)c1ccc(C(Cc2ccc(O)cc2)C(=O)O)cc1 (stereo not drawn)
inactive: [17] 105 % of control | [18] 102 % of control | [19] 100 % of control

CCCCCCCCCCCCCCOCC(O)CN(CCO)CCO (stereo not drawn)
inactive: dose: 12.5 mg/kg/injection, schedule: Q01DX009 (ip), vehicle: saline 105 % of control | dose: 25.0 mg/kg/injection, schedule: Q01DX009 (ip), vehicle: saline 105 % of control | [5] 88 % of control and 98 % of control

CCCCNc1ccc(C(=O)OC2CCN(C)CC2)c(Cl)c1
inactive: dose: 0.79 mg/kg/injection, schedule: Q01DX009 (ip), vehicle: saline with Tween-80 111 % of control and 119 % of control and 97 % of control | dose: 1.56 mg/kg/injection, schedule: Q01DX009 (ip), vehicle: saline with Tween-80 106 % of control and 119 % of control | dose: 12.5 mg/kg/injection, schedule: Q01DX009 (ip), vehicle: saline with Tween-80 107 % of control

CN(C)CCNC(=O)c1nn(-c2ccccc2)c2c1CSc1ccccc1-2
inactive: dose: 100.0 mg/kg/injection, schedule: Q04DX002 (ip), vehicle: saline with Tween-80 100 % of control | dose: 200.0 mg/kg/injection, schedule: Q04DX002 (ip), vehicle: saline with Tween-80 105 % of control | dose: 400.0 mg/kg/injection, schedule: Q04DX002 (ip), vehicle: saline with Tween-80 103 % of control

CC(C)(CO)NCCNC(C)(C)CO
inactive: [17] 98 % of control | [18] 90 % of control | [19] 100 % of control

O=[N+]([O-])c1ccc(Br)cc1
inactive: [5] 106 % of control | [6] 108 % of control | [7] 101 % of control

CCCN(CCC)CCCC#N
inactive: dose: 25.0 mg/kg/injection, schedule: Q01DX009 (ip), vehicle: saline with Tween-80 90 % of control | [10] 90 % of control | [8] 100 % of control
